The numbers were not newly measured in patent US20140031310A1, “PHARMACEUTICAL COMPOSITIONS AND METHODS FOR MAKING AND USING THEM” (priority 2011, published 2014), which cites them from elsewhere.

The conditions of data set [1]: in vivo.
For data set [2] the following is noted: in vivo. The source holds these as a separate data set.

Consider `CNC(=O)c1cc(Oc2ccc(NC(=O)Nc3ccc(Cl)c(C(F)(F)F)c3)cc2)ccn1` [sorafenib], for which the pharmacokinetic half-life in data set [1] is 20 to 24 h.

Regarding bevacizumab: anti-VEGF mAb, the “leads to HFSR / skin toxicity” value in data set [2] is on record as “Neither anti-VEGF mAbs (bevacizumab) nor PDGF-R inhibitors (e.g., imatinib) lead to HFSR”.
